A value given as a limit tells only on which side of the number the result lay.

This is an account of results in patent publication US10047051B2, “Substituted pyridines and method of use” (AbbVie S.á{acute over (.)}r.l., priority 2015, dated 2018).

One assay concerns the target T1, CFTR ΔF508 mutant (Homo sapiens, UniProt P13569, DEL508-508).
T1 construct: expressed in transfected cells; host or cells: CFBE41o- cells, adenoviral transduction
Put plainly: YFP-halide influx assay for the CFTR-ΔF508 mutation (CFBE41o- cells). To be noted: forskolin 10.67 μM; for EC50: from (1−F/F0) vs concentration plot. It counts as cell-based. The method in brief: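 CFBE41o- cells transduced with adenovirus expressing CFTR ΔF508 and halide-sensitive YFP H148Q/I152L/F47L, then held 24 h at 27° C or with a CFTR modulator 24 h at 37° C. Iodide-induced quench recorded 2 min; EC50 from (1−F/F0) at 36 s versus concentration.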

The next assay addresses T2, CFTR G551D mutant (Homo sapiens, UniProt P13569, G551D).
T2 construct: expressed in transfected cells; host or cells: HEK293 cells, reverse transfection with plasmids
Briefly: YFP-halide influx assay for the CFTR-G551D mutation (HEK293 cells). It counts as cell-based. To be noted: forskolin 10.67 μM. An outline of the steps: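 HEK293 cells reverse-transfected with CFTR G551D and halide-sensitive YFP (H148Q/I152L/F47L), expressed 24 h at 37 °C. YFP fluorescence quenching recorded for 7 s after I⁻ injection. Response = 1−F/F0; EC50 derived from 1−F/F0 vs compound concentration.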

T1 sequence (P13569 with tags, fused parts or gaps DEL508-508): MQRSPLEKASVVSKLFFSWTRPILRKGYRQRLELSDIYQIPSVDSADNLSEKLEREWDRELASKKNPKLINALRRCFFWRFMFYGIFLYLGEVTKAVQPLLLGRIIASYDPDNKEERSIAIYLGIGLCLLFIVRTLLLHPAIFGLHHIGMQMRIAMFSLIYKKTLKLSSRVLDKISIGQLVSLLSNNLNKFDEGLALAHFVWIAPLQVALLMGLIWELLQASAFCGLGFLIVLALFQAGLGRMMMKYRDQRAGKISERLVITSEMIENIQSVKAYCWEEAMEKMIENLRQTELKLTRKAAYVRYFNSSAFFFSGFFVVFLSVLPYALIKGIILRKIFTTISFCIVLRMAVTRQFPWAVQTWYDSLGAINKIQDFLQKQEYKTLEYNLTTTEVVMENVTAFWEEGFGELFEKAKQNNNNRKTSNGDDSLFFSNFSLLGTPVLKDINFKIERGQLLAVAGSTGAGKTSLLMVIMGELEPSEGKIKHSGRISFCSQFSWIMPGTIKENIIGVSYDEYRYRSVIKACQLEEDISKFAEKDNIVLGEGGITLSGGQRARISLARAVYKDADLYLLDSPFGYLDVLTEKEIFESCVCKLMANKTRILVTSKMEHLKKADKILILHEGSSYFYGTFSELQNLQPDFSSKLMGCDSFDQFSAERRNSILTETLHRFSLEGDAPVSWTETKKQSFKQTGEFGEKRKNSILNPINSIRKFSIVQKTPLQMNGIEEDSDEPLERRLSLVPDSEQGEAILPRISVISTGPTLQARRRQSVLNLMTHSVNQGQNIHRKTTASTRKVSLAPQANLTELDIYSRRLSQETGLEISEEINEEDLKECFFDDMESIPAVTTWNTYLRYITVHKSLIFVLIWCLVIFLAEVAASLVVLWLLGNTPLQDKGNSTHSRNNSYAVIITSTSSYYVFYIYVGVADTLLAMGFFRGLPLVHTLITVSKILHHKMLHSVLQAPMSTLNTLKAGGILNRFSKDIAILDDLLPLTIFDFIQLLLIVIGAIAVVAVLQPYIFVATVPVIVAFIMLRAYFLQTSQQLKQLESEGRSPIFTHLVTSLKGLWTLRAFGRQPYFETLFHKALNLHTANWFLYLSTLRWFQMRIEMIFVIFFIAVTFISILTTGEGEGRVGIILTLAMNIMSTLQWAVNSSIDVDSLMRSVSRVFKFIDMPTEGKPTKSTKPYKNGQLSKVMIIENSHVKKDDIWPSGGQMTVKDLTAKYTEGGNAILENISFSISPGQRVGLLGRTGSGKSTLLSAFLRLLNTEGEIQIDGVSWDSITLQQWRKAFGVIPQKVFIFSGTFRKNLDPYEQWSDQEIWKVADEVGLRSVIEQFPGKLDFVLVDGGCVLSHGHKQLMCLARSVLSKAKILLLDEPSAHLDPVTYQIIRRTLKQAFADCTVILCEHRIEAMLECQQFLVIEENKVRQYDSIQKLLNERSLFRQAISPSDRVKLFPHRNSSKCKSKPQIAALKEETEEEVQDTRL
T2 sequence (P13569 whole entry G551D): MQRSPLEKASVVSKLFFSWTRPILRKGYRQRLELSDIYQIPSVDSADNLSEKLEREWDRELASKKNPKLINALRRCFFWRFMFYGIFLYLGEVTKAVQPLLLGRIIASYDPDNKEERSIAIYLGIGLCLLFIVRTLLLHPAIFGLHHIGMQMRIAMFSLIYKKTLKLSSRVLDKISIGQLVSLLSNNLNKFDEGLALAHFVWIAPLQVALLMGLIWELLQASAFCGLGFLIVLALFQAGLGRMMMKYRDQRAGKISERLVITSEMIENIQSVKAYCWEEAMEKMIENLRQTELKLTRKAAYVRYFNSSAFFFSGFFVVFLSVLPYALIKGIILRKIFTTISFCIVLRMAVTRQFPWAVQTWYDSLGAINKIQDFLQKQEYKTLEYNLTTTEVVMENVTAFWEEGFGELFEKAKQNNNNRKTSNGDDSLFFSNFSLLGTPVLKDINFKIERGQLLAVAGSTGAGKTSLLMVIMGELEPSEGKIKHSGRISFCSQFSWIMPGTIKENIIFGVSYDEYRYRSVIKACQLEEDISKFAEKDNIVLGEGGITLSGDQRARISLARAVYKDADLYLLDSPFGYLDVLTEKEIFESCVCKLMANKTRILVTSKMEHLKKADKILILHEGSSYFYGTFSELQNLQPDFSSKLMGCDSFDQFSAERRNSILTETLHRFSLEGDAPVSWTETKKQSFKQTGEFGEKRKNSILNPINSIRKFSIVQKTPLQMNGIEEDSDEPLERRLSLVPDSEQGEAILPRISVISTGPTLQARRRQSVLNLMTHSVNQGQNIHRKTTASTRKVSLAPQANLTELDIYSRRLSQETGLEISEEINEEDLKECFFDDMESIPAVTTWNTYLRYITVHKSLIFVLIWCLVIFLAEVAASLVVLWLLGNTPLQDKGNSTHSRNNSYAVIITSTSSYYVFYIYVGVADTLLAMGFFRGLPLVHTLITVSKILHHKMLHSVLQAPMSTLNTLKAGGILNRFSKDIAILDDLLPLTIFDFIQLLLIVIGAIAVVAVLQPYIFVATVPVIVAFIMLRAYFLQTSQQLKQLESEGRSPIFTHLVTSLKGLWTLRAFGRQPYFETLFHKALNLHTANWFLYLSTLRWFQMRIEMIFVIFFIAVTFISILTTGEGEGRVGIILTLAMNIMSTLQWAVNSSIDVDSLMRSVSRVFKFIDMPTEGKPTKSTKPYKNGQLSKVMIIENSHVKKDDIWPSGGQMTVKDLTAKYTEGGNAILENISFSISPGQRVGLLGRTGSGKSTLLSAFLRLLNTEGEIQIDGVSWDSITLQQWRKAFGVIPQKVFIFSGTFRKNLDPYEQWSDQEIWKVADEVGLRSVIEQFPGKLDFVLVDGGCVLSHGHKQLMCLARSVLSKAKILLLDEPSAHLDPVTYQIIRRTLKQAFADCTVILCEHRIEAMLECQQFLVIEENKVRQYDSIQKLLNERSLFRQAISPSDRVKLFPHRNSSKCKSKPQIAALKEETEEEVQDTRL

One may read the EC50 as the concentration that produces a half-maximal response. Lower therefore signals higher potency in that assay. Turning to `Nc1cc(S(=O)(=O)c2ccc(OC(F)(F)F)cc2)cnc1C(=O)N1CC2(COC2)C1` [Compound 68, (3-amino-5-{[4-(trifluoromethoxy)phenyl]sulfonyl}pyridin-2-yl)(2-oxa-6-azaspiro[3.3]hept-6-yl)methanone], at CFTR ΔF508 mutant, the “% Activation” value was found to be 92.0% and the EC50 amounted to 0.13 µM. Besides, on CFTR G551D mutant, the “% Activation” value came to 54.0% and the midpoint of the response, the EC50, lay at 1.82 µM.
Regarding `CO[C@H]1CCC[C@@H]1NC(=O)c1ncc(S(=O)(=O)c2ccc(C(F)(F)F)cc2)cc1N` [Compound 293, 3-amino-N-[(1S,2S)-2-methoxycyclopentyl]-5-{[4-(trifluoromethyl)phenyl]sulfonyl}pyridine-2-carboxamide], on CFTR ΔF508 mutant, the “% Activation” value is 87.8% and the EC50 was found to be 0.135 µM. Further, on CFTR G551D mutant, the “% Activation” value is listed as 40.8% and the EC50 was above 3.33 µM.
`Nc1cc(S(=O)(=O)c2ccc(C(F)(F)F)cc2)cnc1C(=O)N[C@H]1CCC[C@@H]1O` [Compound 215, 3-amino-N-[(1S,2S)-2-hydroxycyclopentyl]-5-{[4-(trifluoromethyl)phenyl]sulfonyl}pyridine-2-carboxamide]: at CFTR ΔF508 mutant, the “% Activation” value was 109.8% and the concentration giving a half-maximal response (EC50) is 0.0089 µM. For the same compound, at CFTR G551D mutant, the “% Activation” value came out at 57.6% and the EC50 was 0.389 µM.
On the same counts, the results for `Nc1cc(S(=O)(=O)N2CCC(F)(F)C2)cnc1C(=O)NCC(O)C(F)(F)F` (stereo not shown) [Compound 186, 3-amino-5-[(3,3-difluoropyrrolidin-1-yl)sulfonyl]-N-(3,3,3-trifluoro-2-hydroxypropyl)pyridine-2-carboxamide] are 108.2%, 0.0299 µM, 49.9% and above 3.33 µM.
As for `Nc1cc(S(=O)(=O)c2ccc(OC(F)(F)F)cc2)cnc1C(=O)NCC1CCOCC1` [Compound 129, 3-amino-N-(tetrahydro-2H-pyran-4-ylmethyl)-5-{[4-(trifluoromethoxy)phenyl]sulfonyl}pyridine-2-carboxamide], on CFTR ΔF508 mutant, the “% Activation” value is reported as 74.9% and the EC50 was determined as 0.18 µM. Moreover, at CFTR G551D mutant, the “% Activation” value stood at 25.9% and the EC50 is above 10 µM.
Take `COC1CN(C(=O)c2ncc(S(=O)(=O)c3ccc(OC(F)(F)F)cc3)cc2N)C1` [Compound 42, (3-amino-5-{[4-(trifluoromethoxy)phenyl]sulfonyl}pyridin-2-yl)(3-methoxyazetidin-1-yl)methanone]: the “% Activation” value on CFTR ΔF508 mutant is 105.5%; at CFTR G551D mutant, 64.3%. The values for the EC50 at CFTR ΔF508 mutant and on CFTR G551D mutant were 0.0371 µM and above 3.33 µM, respectively.
In the case of `CC(C)C[C@H](CO)NC(=O)c1ncc(S(=O)(=O)c2ccc(OC(F)(F)F)cc2)cc1N` [Compound 46, 3-amino-N-[(2R)-1-hydroxy-4-methylpentan-2-yl]-5-{[4-(trifluoromethoxy)phenyl]sulfonyl}pyridine-2-carboxamide], at CFTR ΔF508 mutant, the “% Activation” value is given as 41.4% and the midpoint of the response, the EC50, lay at 1.16 µM. Besides, at CFTR G551D mutant, the “% Activation” value was 3.5% and the EC50 was above 10 µM.
On the same counts, the results for `Nc1cc(S(=O)(=O)c2ccc(OC(F)(F)F)cc2)cnc1C(=O)NCC1COCCO1` (stereo not shown) [Compound 8, 3-amino-N-(1,4-dioxan-2-ylmethyl)-5-{[4-(trifluoromethoxy)phenyl]sulfonyl}pyridine-2-carboxamide] are 109.5%, 0.0721 µM, 67.5% and 1.2 µM.
Turning to `C[C@H](O)CNC(=O)c1nc(-c2ccc(F)cc2)c(S(=O)(=O)CCO)cc1N` [Compound 262, 3-amino-6-(4-fluorophenyl)-5-[(2-hydroxyethyl)sulfonyl]-N-[(2S)-2-hydroxypropyl]pyridine-2-carboxamide], at CFTR ΔF508 mutant, the “% Activation” value was determined as 8.9% and the EC50 was above 1 µM. On CFTR G551D mutant, the “% Activation” value is reported as 5.5% and the EC50 is above 1 µM.
Regarding `COCC(O)CNC(=O)c1ncc(S(=O)(=O)c2ccc(C(F)(F)F)cc2)cc1N` (stereo not shown) [Compound 239, 3-amino-N-(2-hydroxy-3-methoxypropyl)-5-{[4-(trifluoromethyl)phenyl]sulfonyl}pyridine-2-carboxamide], the “% Activation” value is 95.8% on CFTR ΔF508 mutant and 76.5% on CFTR G551D mutant. The EC50 was determined as 0.0295 µM on CFTR ΔF508 mutant and 1.05 µM on CFTR G551D mutant.
On the same counts, the results for `Nc1cc(S(=O)(=O)N2CC[C@H](F)C2)cnc1C(=O)NCC(O)C(F)(F)F` (stereo partly drawn) [Compound 180, 3-amino-5-{[(3S)-3-fluoropyrrolidin-1-yl]sulfonyl}-N-(3,3,3-trifluoro-2-hydroxypropyl)pyridine-2-carboxamide] are 97.0%, 30.2%, 0.107 µM and above 10 µM.
On to `Nc1cc(S(=O)(=O)c2ccc(C(F)(F)F)cc2)cnc1C(=O)N1C[C@@H](O)[C@H](O)C1` [Compound 229, (3-amino-5-{[4-(trifluoromethyl)phenyl]sulfonyl}pyridin-2-yl) [(3R,4R)-3,4-dihydroxypyrrolidin-1-yl]methanone], for which the “% Activation” value turned out to be 24.0% on CFTR ΔF508 mutant and 1.0% at CFTR G551D mutant. Also, the EC50 on CFTR ΔF508 mutant was above 2 µM; on CFTR G551D mutant, above 10 µM.
Regarding `Nc1cc(S(=O)(=O)c2ccc(OC(F)(F)F)cc2)cnc1C(=O)NC1COC2(CCCCC2)C1` (stereo not shown) [Compound 149, 3-amino-N-(1-oxaspiro[4.5]dec-3-yl)-5-{[4-(trifluoromethoxy)phenyl]sulfonyl}pyridine-2-carboxamide], at CFTR ΔF508 mutant, the “% Activation” value is reported as 91.2% and the EC50 amounted to 0.179 µM. On CFTR G551D mutant, the “% Activation” value turned out to be 42.7% and the EC50 is above 1.67 µM.
Consider `Nc1cc(S(=O)(=O)c2ccc(OC(F)(F)F)cc2)cnc1C(=O)NCCN1CCOCC1` [Compound 9, 3-amino-N-[2-(morpholin-4-yl)ethyl]-5-{[4-(trifluoromethoxy)phenyl]sulfonyl}pyridine-2-carboxamide], for which the “% Activation” value was found to be 97.5% on CFTR ΔF508 mutant and 59.5% at CFTR G551D mutant. In addition, the EC50 on CFTR ΔF508 mutant was 0.161 µM; on CFTR G551D mutant it was above 3.33 µM.
With `COc1ccnc(CNC(=O)c2ncc(S(=O)(=O)N3CCC[C@@H]3C)cc2N)n1` [Compound 281, 3-amino-N-[(4-methoxypyrimidin-2-yl)methyl]-5-{[(2S)-2-methylpyrrolidin-1-yl]sulfonyl}pyridine-2-carboxamide], the “% Activation” value on CFTR ΔF508 mutant stood at 89.4%; at CFTR G551D mutant it was 50.0%. In addition, the figures for the concentration for a half-maximal effect (EC50) on CFTR ΔF508 mutant and on CFTR G551D mutant were 0.167 µM and above 3.33 µM, respectively.
In the case of `C[C@H](O)CNC(=O)c1ncc(S(=O)(=O)NCc2ccc(F)cc2)cc1N` [Compound 267, 3-amino-5-[(4-fluorobenzyl)sulfamoyl]-N-[(2S)-2-hydroxypropyl]pyridine-2-carboxamide], on CFTR ΔF508 mutant, the “% Activation” value amounted to 59.3% and the EC50 is above 0.667 µM. On CFTR G551D mutant, the “% Activation” value was 0.9% and the EC50 was above 10 µM.
On the same counts, the results for `CC(C)(CCO)CNC(=O)c1ncc(S(=O)(=O)c2ccc(OC(F)(F)F)cc2)cc1N` [Compound 34, 3-amino-N-(4-hydroxy-2,2-dimethylbutyl)-5-{[4-(trifluoromethoxy)phenyl]sulfonyl}pyridine-2-carboxamide] are 99.0%, 0.0911 µM, 70.2% and 1.48 µM.
The like results for `Nc1cc(S(=O)(=O)c2ccc(OC(F)(F)F)cc2)cnc1C(=O)NC1CC(F)(F)C1` [Compound 122, 3-amino-N-(3,3-difluorocyclobutyl)-5-{[4-(trifluoromethoxy)phenyl]sulfonyl}pyridine-2-carboxamide] were, in that order, 83.2%, 0.0353 µM, 50.9% and 0.425 µM.
Regarding `Nc1cc(S(=O)(=O)c2ccc(C(F)(F)F)cc2)cnc1C(=O)NCC(F)(F)F` [Compound 209, 3-amino-N-(2,2,2-trifluoroethyl)-5-{[4-(trifluoromethyl)phenyl]sulfonyl}pyridine-2-carboxamide], at CFTR ΔF508 mutant, the “% Activation” value came out at 93.8% and the response was half-maximal at 0.0362 µM (EC50). At CFTR G551D mutant, the “% Activation” value came out at 39.3% and the EC50 was above 10 µM.
As to `COCCN(C1CC1)S(=O)(=O)c1cnc(C(=O)NCC(O)C(F)(F)F)c(N)c1` (stereo not shown) [Compound 108, 3-amino-5-[cyclopropyl(2-methoxyethyl)sulfamoyl]-N-(3,3,3-trifluoro-2-hydroxypropyl)pyridine-2-carboxamide], on CFTR ΔF508 mutant, the “% Activation” value turned out to be 110.0% and the EC50 is 0.0182 µM. On CFTR G551D mutant, the “% Activation” value is 56.8% and it took 1.7 µM to reach a half-maximal effect (EC50).
With `Nc1cc(S(=O)(=O)c2ccccc2)cnc1C(=O)NCC(O)C(F)(F)F` (stereo not shown) [Compound 244, 3-amino-5-(phenylsulfonyl)-N-(3,3,3-trifluoro-2-hydroxypropyl)pyridine-2-carboxamide], at CFTR ΔF508 mutant, the “% Activation” value is recorded as 102.5% and the response was half-maximal at 0.0085 µM (EC50). Moreover, on CFTR G551D mutant, the “% Activation” value is recorded as 65.9% and the concentration for a half-maximal effect (EC50) is 0.564 µM.
In the case of `Nc1cc(S(=O)(=O)N2CCC(F)(F)CC2)cnc1C(=O)NCC(O)C(F)(F)F` (stereo not shown) [Compound 84, 3-amino-5-[(4,4-difluoropiperidin-1-yl)sulfonyl]-N-(3,3,3-trifluoro-2-hydroxypropyl)pyridine-2-carboxamide], on CFTR ΔF508 mutant, the “% Activation” value worked out at 101.0% and the EC50 came out at 0.0105 µM. At CFTR G551D mutant, the “% Activation” value came out at 64.4% and it took 1.94 µM to reach a half-maximal effect (EC50).
